{"source": "patent US12290596B2", "about": "“Compositions and methods for the treatment of opioid overdose” (priority 2021, dated 2025)", "key": {"[1]": {"assay": "Safety and tolerability of IN nalmefene, adverse events (Example 13)", "format": "in vivo, human (healthy volunteers)", "description": "Safety: The Investigator evaluated safety using the following assessments: reported or observed AEs, clinical laboratory evaluations, vital sign measurements, physical examinations, ECGs (including telemetry), nasal irritation determined from nasal passage examinations, and NRS to determine acute nasal pain."}, "[2]": {"assay": "Example 14 safety: adverse events", "details": "Part 2"}, "[3]": {"details": "Treatment B (6 mg, 1 spray in each nostril)"}, "[4]": {"details": "Treatment C (6 mg, 2 sprays in 1 nostril)"}}, "data": [{"smiles": "C=C1CC[C@@]2(O)[C@H]3Cc4ccc(O)c5c4[C@@]2(CCN3CC2CC2)[C@H]1O5", "note": "[Nalmefene, 17-cyclopropylmethyl-4,5α-epoxy-6-methylenemorphinan-3,14-diol]", "values": [{"measurement": "Tolerability", "setting": "[1]; 3 mg and 6 mg dose, fasted healthy subjects", "result": "well-tolerated"}, {"measurement": "Nasal congestion, instances", "setting": "[1]; Treatment A", "result": 1}, {"measurement": "Nasal discomfort, instances", "setting": "[1]; Treatment A", "result": 1}, {"measurement": "Nausea, instances", "setting": "[1]; Treatment A", "result": 1}, {"measurement": "Number of AEs reported", "setting": "[1]; Treatment A (3 mg)", "result": 20}, {"measurement": "Subjects reporting AEs", "setting": "[1]; Treatment A (3 mg)", "result": 43.5, "unit": "%"}, {"measurement": "Nasal congestion, instances", "setting": "[1]; Treatment B", "result": 2}, {"measurement": "Nausea, instances", "setting": "[1]; Treatment B", "result": 5}, {"measurement": "Number of AEs reported", "setting": "[1]; [3]", "result": 24}, {"measurement": "Subjects reporting AEs", "setting": "[1]; [3]", "result": 60.9, "unit": "%"}, {"measurement": "Nasal congestion, instances", "setting": "[1]; Treatment C", "result": 4}, {"measurement": "Nasal discomfort, instances", "setting": "[1]; Treatment C", "result": 3}, {"measurement": "Nausea, instances", "setting": "[1]; Treatment C", "result": 1}, {"measurement": "Number of AEs reported", "setting": "[1]; [4]", "result": 24}, {"measurement": "Subjects reporting AEs", "setting": "[1]; [4]", "result": 58.3, "unit": "%"}, {"measurement": "Serious AEs or AEs leading to withdrawal or death", "setting": "[1]; all treatments", "result": "no serious AEs"}, {"measurement": "Severity of TEAEs", "setting": "[1]; all treatments", "result": "mild"}, {"measurement": "Number of TEAEs", "setting": "[2]", "result": 172}, {"measurement": "Subjects reporting Grade 1 severity TEAEs", "setting": "[2]", "result": 68.9, "unit": "%"}, {"measurement": "Subjects reporting Grade 2 severity TEAEs", "setting": "[2]", "result": 23.0, "unit": "%"}, {"measurement": "Subjects reporting TEAEs", "setting": "[2]", "result": 91.8, "unit": "%"}, {"measurement": "Subjects reporting headache", "setting": "[2]", "result": 59.0, "unit": "%"}, {"measurement": "Subjects who discontinued the study drug due to an AE", "setting": "[2]", "result": 6.6, "unit": "%"}]}]}
